Laboratory results reported in patent US7786141B2 (Vertex Pharmaceuticals Incorporated, priority 2004, dated 2010).
Where two headings read alike, the source gives them in different places.

Legend:
M1 muscarinic receptor = target: T1, M1 muscarinic receptor (Homo sapiens, UniProt P11229); assay: Functional mobilization of intracellular calcium (FLIPR) in M1-CHO cells; assay type: cell-based
T1 construct: expressed in transfected cells; host or cells: CHO (M1-CHO)
T1 sequence (P11229 1-460): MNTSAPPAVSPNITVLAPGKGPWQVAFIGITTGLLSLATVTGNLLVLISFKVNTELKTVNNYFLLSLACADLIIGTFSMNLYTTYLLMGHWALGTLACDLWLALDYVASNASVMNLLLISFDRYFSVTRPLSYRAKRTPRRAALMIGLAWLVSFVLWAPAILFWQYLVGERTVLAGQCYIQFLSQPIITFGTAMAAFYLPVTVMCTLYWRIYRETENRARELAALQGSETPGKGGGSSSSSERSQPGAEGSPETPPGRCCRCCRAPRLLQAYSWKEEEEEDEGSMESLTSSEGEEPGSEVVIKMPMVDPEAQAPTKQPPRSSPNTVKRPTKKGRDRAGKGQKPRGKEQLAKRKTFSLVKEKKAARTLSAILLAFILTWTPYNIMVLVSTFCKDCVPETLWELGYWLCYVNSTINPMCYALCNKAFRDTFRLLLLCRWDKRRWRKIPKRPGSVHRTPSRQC
How it was run: (§1)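 CHO cells stably expressing human M1 or M4 receptor were loaded with Fluo-3 AM (or Calcium 3 dye) in Hepes-buffered saline, pH 7.4, with 1 mM probenecid, 0.5% final DMSO. Agonist mode: compound added directly; antagonist mode: 15 min preincubation before carbachol at EC80. FLIPR fluorescence recorded 60 sec.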

M4 muscarinic receptor = target: T2, M4 muscarinic receptor (Homo sapiens, UniProt P08173); assay: Functional mobilization of intracellular calcium (FLIPR) in M4-CHO cells; assay type: cell-based
T2 construct: expressed in transfected cells; host or cells: CHO (M4-CHO)
T2 sequence (P08173 1-479): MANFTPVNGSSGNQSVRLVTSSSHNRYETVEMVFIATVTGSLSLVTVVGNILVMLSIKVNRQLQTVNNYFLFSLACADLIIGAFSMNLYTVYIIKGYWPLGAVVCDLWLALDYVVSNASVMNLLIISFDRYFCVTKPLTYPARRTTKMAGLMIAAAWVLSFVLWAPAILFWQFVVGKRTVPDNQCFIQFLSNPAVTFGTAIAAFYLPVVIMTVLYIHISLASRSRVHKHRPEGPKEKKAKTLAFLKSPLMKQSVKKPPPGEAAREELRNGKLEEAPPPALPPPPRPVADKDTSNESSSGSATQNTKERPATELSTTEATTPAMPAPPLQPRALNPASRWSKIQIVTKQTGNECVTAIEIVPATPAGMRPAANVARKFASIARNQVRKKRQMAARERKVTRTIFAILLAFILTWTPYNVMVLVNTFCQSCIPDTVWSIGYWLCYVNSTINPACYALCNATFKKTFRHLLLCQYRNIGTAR
How it was run: as §1

[1] = Table 4, 100% efficacy is the maximum response obtained with the Carbachol control
[2] = Table 4, modulating M1 receptor
[3] = Table 4, modulating M4 receptor
[4] = M1 receptor, calcium mobilization
[5] = M1 receptor, calcium mobilization, read-out: M1 Efficacy
[6] = M4 receptor, calcium mobilization
[7] = M4 receptor, calcium mobilization, read-out: M4 Efficacy
[8] = Table 4, M1 receptor, calcium mobilization (FLIPR)
[9] = Table 4, M4 receptor, calcium mobilization (FLIPR)
[10] = M1-CHO cells, calcium mobilization (FLIPR)
[11] = M1-CHO cells, calcium mobilization (FLIPR), read-out: M1 Efficacy
[12] = M4-CHO cells, calcium mobilization (FLIPR)
[13] = M4-CHO cells, calcium mobilization (FLIPR), read-out: M4 Efficacy

| SMILES | Emax (M1 muscarinic receptor; [1]) [%] | M1 Activity (M1 muscarinic receptor; [2]) | Emax (M4 muscarinic receptor; [1]) [%] | M4 Activity (M4 muscarinic receptor; [3]) | M1 Activity (M1 muscarinic receptor; [4]) | Emax (M1 muscarinic receptor; [5]) [%] | M4 Activity (M4 muscarinic receptor; [6]) | Emax (M4 muscarinic receptor; [7]) [%] | other results |
| --- | --- | --- | --- | --- | --- | --- | --- | --- | --- |
| CN(C)C(=O)N1CC2(CCN(C3CCN(C(=O)CCC#N)CC3)CC2)c2cc(F)ccc21 [compound 492] | 25 to 100 | x (activity was measured to be greater than 5.0 μM) | < 25 | x (activity was measured to be greater than 5.0 μM) | – | – | – | – | – |
| CC(=O)N[C@H]1CC2(CCN(C3CCCCC3)CC2)c2ccccc21 [compound 196] | – | – | – | – | xxx (activity was measured to be less than 0.1 μM) | 65 to 85 | x (activity was measured to be greater than 1.0 μM) | < 65 | – |
| CC(C)(C)COC(=O)N1C2CCC1CC(N1CCC3(CC1)COc1ccc(F)cc13)C2 (centres unmarked) [compound 247] | – | – | – | – | xx (activity was measured to be between 0.1 μM and 1.0 μM) | 65 to 85 | x (activity was measured to be greater than 1.0 μM) | > 85 | – |
| CC(=O)N[C@H]1CC2(CCN(CCC3=C(C)CCCC3(C)C)CC2)c2ccccc21 [compound 784] | < 25 | x (activity was measured to be greater than 5.0 μM) | < 25 | x (activity was measured to be greater than 5.0 μM) | – | – | – | – | – |
| CC1=C(CCN2CCC3(CC2)C[C@H](NC(=O)C2CCCC2)c2ccccc23)C(C)(C)CCC1 [compound 873] | < 25 | – | < 25 | – | – | – | – | – | M1 Activity (M1 muscarinic receptor; [8]): x (activity was measured to be greater than 5.0 μM); M4 Activity (M4 muscarinic receptor; [9]): x (activity was measured to be greater than 5.0 μM) |
| CCOC(=O)N1CCC(N2CCC3(CC(=O)c4cc(F)ccc43)C2)CC1 (centres unmarked) [compound 765] | 25 to 100 | x (activity was measured to be greater than 5.0 μM) | < 25 | x (activity was measured to be greater than 5.0 μM) | – | – | – | – | – |
| CC(=O)CN1CC2(CCN(C[C@@H]3C[C@H]4C=C[C@H]3C4)CC2)c2cc(F)ccc21 [compound 385] | – | – | – | – | – | – | – | – | EC50 (M1 muscarinic receptor; [10]): 100 to 1000 nM; Emax (M1 muscarinic receptor; [11]): 65 to 85%; EC50 (M4 muscarinic receptor; [12]): > 1000 nM; Emax (M4 muscarinic receptor; [13]): < 65% |
| CCOC(=O)N1CCC(N2CCC3(CC2)CN(C(C)=O)c2c(-c4ccccc4OC)cccc23)CC1 [compound 799] | < 25 | x (activity was measured to be greater than 5.0 μM) | < 25 | x (activity was measured to be greater than 5.0 μM) | – | – | – | – | – |
| CCOC(=O)N1CCC(N2CCC3(CC2)CN(C(C)=O)c2ccc(C4CC4)cc23)CC1 [compound 245] | – | – | – | – | xx (activity was measured to be between 0.1 μM and 1.0 μM) | < 65 | xx (activity was measured to be between 0.1 μM and 1.0 μM) | > 85 | – |
| CCOC(=O)N1CCC(N2CCC3(CC2)CN(C(=O)N(CC)CC)c2ccc(F)cc23)CC1 [compound 223] | – | – | – | – | x (activity was measured to be greater than 1.0 μM) | < 65 | x (activity was measured to be greater than 1.0 μM) | < 65 | – |
| CC(=O)N1CC2(CCN(C3CC4CCC(C3)N4C(=O)OC(C)C)CC2)c2ccccc21 (centres unmarked) [compound 742] | 25 to 100 | xxx (activity was measured to be less than 2.0 μM) | 25 to 100 | xxx (activity was measured to be less than 2.0 μM) | – | – | – | – | – |
| CN(C)C(=O)N1CC2(CCN(C[C@@H]3CCN(c4nccs4)C3)CC2)c2cc(F)ccc21 [compound 570] | 25 to 100 | xx (activity was measured to be between 2.0 μM and 5.0 μM) | 25 to 100 | xxx (activity was measured to be less than 2.0 μM) | – | – | – | – | – |
| CCCC1CCC(N2CCC3(CC2)C[C@H](NC(C)=O)c2ccccc23)CC1 (some centres unmarked) [compound 15] | – | – | – | – | xxx (activity was measured to be less than 0.1 μM) | 65 to 85 | xx (activity was measured to be between 0.1 μM and 1.0 μM) | > 85 | – |
| O=C(OCC(F)F)N1C2CCC1CC(N1CCC3(CC1)COc1ccc(F)cc13)C2 (centres unmarked) [compound 186] | – | – | – | – | xxx (activity was measured to be less than 0.1 μM) | > 85 | x (activity was measured to be greater than 1.0 μM) | 65 to 85 | – |
| O=C1CC2(CCN(CC3CC4C=CC3C4)CC2)c2cc(Cl)ccc21 (centres unmarked) [compound 826] | 25 to 100 | – | 25 to 100 | – | – | – | – | – | M1 Activity (M1 muscarinic receptor; [8]): xxx (activity was measured to be less than 2.0 μM); M4 Activity (M4 muscarinic receptor; [9]): xxx (activity was measured to be less than 2.0 μM) |
| CCOC(=O)N1C2CCC1CC(N1CCC3(CC[C@H](NC(=O)C4CC4)c4ccccc43)CC1)C2 (some centres unmarked) [compound 664] | 25 to 100 | xxx (activity was measured to be less than 2.0 μM) | 25 to 100 | xxx (activity was measured to be less than 2.0 μM) | – | – | – | – | – |
| CCOC(=O)N1CCC(N2CCC3(CC2)CN(C(=O)c2cccc(F)c2)c2ccc(F)cc23)CC1 [compound 410] | – | – | – | – | – | – | – | – | EC50 (M1 muscarinic receptor; [10]): 100 to 1000 nM; Emax (M1 muscarinic receptor; [11]): < 65%; EC50 (M4 muscarinic receptor; [12]): 100 to 1000 nM; Emax (M4 muscarinic receptor; [13]): < 65% |
